Experimental findings from article PMC12056667 (Chemical Science, 2025) are described below.

“And” between values parts separate entries of the source, which are not always exact repeats. Equal values may be shown once. Read-outs that look alike come from different tables or passages of the source.

The target of assay [1] is Tet(X4) (Escherichia coli, UniProt A0A3T0V9Y5). As to the kind of experiment: FP competitive displacement of probe 6. Format: binding. Conditions: IC50app, 25 nM 6, 40 nM Tet(X4), 5 mM MgCl2, 1 μM FAD, 100 mM Tris pH 7.0, 0.01% Triton X-100. How it is done:
A 2× solution containing 80 nM Tet(X4), 2 μM FAD and 10 mM MgCl2 in the assay buffer was dispensed into the first 22 columns of a 384-well black, non-binding microtiter plate (Greiner Bio-One), 12.5 μL per well, using a microplate reagent dispenser. A solution of 2 μM FAD and 10 mM MgCl2 in the assay buffer was dispensed into the remaining columns to serve as a no enzyme control. A 3-fold, 10-point dilution series of substrates and inhibitors was made in DMSO in a V-bottom 96-well plate (Greiner Bio-One) with a highest concentration of 5 mM or 0.5 mM. Into one column was added DMSO with no inhibitor or substrate, to serve as a positive control. Tigecycline was included as a reference on every plate to ensure reproducibility. 0.5 μL of each dilution was transferred in quadruplicate to the 384-well plate containing enzyme solution using a CyBi-Well liquid-handling robot (CyBio). A solution of 50 nM 6 in the assay buffer was then dispensed, with 12.5 μL per well. The plate was briefly centrifuged (1000 rpm), then incubated at ambient temperature for 30 min prior to measuring the FP. Data points were normalised between the positive and negative controls. Normalised % response was plotted as a function of log10([Inhibitor]), and the IC50^app was determined by fitting the data to the equation: Y = Bottom + (top-bottom)/(1 + 10^Log(IC50) − X) × HillSlope in GraphPad Prism 9.4.1, where Y = % response and X = log10([Inhibitor]). Wells with unusual fluorescence intensities were manually identified and removed from the analysis. […]

The test system of assay [2] is E. coli TOP10 containing plasmid pBAD-TOPO-Tet(X4). As to the kind of experiment: Broth microdilution MIC and checkerboard assay. Format: cell-based, Escherichia coli. Conditions: for Antibiotic MIC / Tet(X) inhibitor MIC: alone; for MIC: Escherichia coli; for Combination (antibiotic/inhibitor) MIC: inhibitor: inhibitor in combination with tigecycline; for Combination (antibiotic/inhibitor) MIC: inhibitor / Combination (antibiotic/inhibitor) MIC: antibiotic: lowest FICI; for Combination (antibiotic/inhibitor) MIC: antibiotic: tigecycline in combination with the inhibitor; for FICI / Outcome: with tigecycline. The source says:
Tet(X4) was sub-cloned from the Tet(X4) pET28b-(+) expression vector via TOPO cloning. The insert was amplified using the taq polymerase with the forward primer 5′- […]-3′ and the reverse primer 5′- […]-3’. Following PCR purification (Thermo Fisher Scientific), the A-tailed PCR product was ligated into the pBAD-TOPO vector using a TOPO cloning kit (Invitrogen) according to the manufacturer's protocol. Following amplification in E. coli NEB5α cells (NEBiolabs), the fidelity of the insert was confirmed by Sanger sequencing (Eurofins). For microbiological experiments, E. coli TOP10 cells were used as the recipient strain. Cells were plated on Mueller-Hinton agar (MHA) plates containing ampicillin at 100 μg mL^−1. The introduction of pBAD-TOPO-Tet(X4) was confirmed by colony PCR. Strains were stored in a freezer at −80 °C in cryopreservation beads.
(§1) MIC tests and checkerboard assays were performed in U-bottom, 96-well microtiter plates using a modified broth microdilution protocol following CLSI guidelines. Cation-adjusted Mueller-Hinton Broth (CAMHB) was prepared fresh on the day of testing.[74] […] Bacterial colonies were selected from an overnight culture on MHA plates (supplemented with 0.2%w/vL-arabinose for E. coli TOP10 containing pBAD-TOPO-Tet(X4)) and were suspended in 0.9% saline solution to achieve a 0.5 McFarland standard. A 100 μL aliquot of this suspension was then diluted into 9.9 mL of CAMHB to yield approximately 1.5 × 10^6 cfu mL^−1. 50 μL of the suspension was then added to each well of a microtiter plates. Plates were incubated at 37 °C for 18 h. At least 2 replicates were conducted for each combination. E. coli TOP10 + pBAD-TOPO-Tet(X4) cells were grown in the absence and presence of 0.2%w/vL-arabinose. Analysis of the MIC and checkerboard results were carried out by visual inspection of growth, with and without resazurin dye, an oxidation–reduction indicator.[75] As a measure of synergy, fractional inhibitory concentration index (FICI) was calculated as FICA + FICB, where FICA and FICB are the MICcombination/MICalone for each agent, respectively.[76] Results were interpreted as follows: synergistic (<0.5), indifferent (1.0–4.0) or antagonistic (>4.0).[64] In cases where the MIC exceeded or was below the measured range, the borderline value was taken to calculate the FIC index.

Assay [3] concerns Acinetobacter spp. NT3-1 – tet(X3). As to the kind of experiment: microbe, parasite or virus in culture. Format: cell-based. Conditions: for Antibiotic MIC: alone. The method, then:
(§2) MIC tests and checkerboard assays were performed in U-bottom, 96-well microtiter plates using a modified broth microdilution protocol following CLSI guidelines. Cation-adjusted Mueller-Hinton Broth (CAMHB) was prepared fresh on the day of testing.[74] In brief, assays were set up in a total volume of 100 μL per well and titrations comprised seven 2-fold dilutions of inhibitors and ten 2-fold dilutions of tigecycline in CAMHB. Bacterial colonies were selected from an overnight culture on MHA plates (supplemented with 0.2%w/vL-arabinose for E. coli TOP10 containing pBAD-TOPO-Tet(X4)) and were suspended in 0.9% saline solution to achieve a 0.5 McFarland standard. A 100 μL aliquot of this suspension was then diluted into 9.9 mL of CAMHB to yield approximately 1.5 × 10^6 cfu mL^−1. 50 μL of the suspension was then added to each well of a microtiter plates. Plates were incubated at 37 °C for 18 h. At least 2 replicates were conducted for each combination. E. coli TOP10 + pBAD-TOPO-Tet(X4) cells were grown in the absence and presence of 0.2%w/vL-arabinose. Analysis of the MIC and checkerboard results were carried out by visual inspection of growth, with and without resazurin dye, an oxidation–reduction indicator.[75] As a measure of synergy, fractional inhibitory concentration index (FICI) was calculated as FICA + FICB, where FICA and FICB are the MICcombination/MICalone for each agent, respectively.[76] Results were interpreted as follows: synergistic (<0.5), indifferent (1.0–4.0) or antagonistic (>4.0).[64] In cases where the MIC exceeded or was below the measured range, the borderline value was taken to calculate the FIC index.

For assay [4], the system named is Salmonella enterica T-2a – tet(X4). The assay can be described thus: microbe, parasite or virus in culture. Format: cell-based. Conditions: for Antibiotic MIC: alone, S. enterica T-2a. How it is done: as §2
Assay [5] relates to Acinetobacter baumannii NT5-1 – tet(X5). As to the kind of experiment: microbe, parasite or virus in culture. It is filed as cell-based. Conditions: for Antibiotic MIC: alone, A. baumannii NT5-1. How it is done:
as §1

In assay [6] the test system is Escherichia coli T-24a – tet(X4). As to the kind of experiment: microbe, parasite or virus in culture. Format: cell-based. Conditions: for Antibiotic MIC: alone. The method, then:
as §1

The test system of assay [7] is Proteus penneri NT6-2 – tet(X6). The assay can be described thus: microbe, parasite or virus in culture. Conditions: for Antibiotic MIC: alone, P. penneri NT6-2. It is filed as cell-based. How it is done:
as §1

Where [8] appears, read: induced with 0.2%w/v L-arabinose.
[9] abbreviates: inhibitor in combination with tigecycline, lowest FICI.
Setting [10] is: tigecycline in combination with the inhibitor, lowest FICI.

`C[C@H]1c2cccc(O)c2C(=O)C2=C(O)[C@]3(O)C(=O)C(C(N)=O)=C(O)[C@@H](N(C)C)[C@@H]3[C@@H](O)[C@@H]21` [Doxycycline] came in with an IC50 in assay [1] (FP assay) of 1580 ± 150 nM. The “Antibiotic MIC” value in assay [2] (0.2%w/v L-arabinose (Table S7)) stood at 32 µg/mL; in assay [2] (without L-arabinose induction) it was 1 µg/mL; in assay [3] (Acinetobacter spp. NT3-1) it was 8 µg/mL; in assay [4], 32 µg/mL; in assay [5], 32 µg/mL; in assay [6] (E. coli T-24a), 32 µg/mL. In addition, in assay [7], the “Antibiotic MIC” value was found to be 16 µg/mL.

Turning to `CN1CCN(CCCN2c3ccccc3Sc3ccc(Cl)cc32)CC1` [Prochlorperazine], the MIC in assay [2] (read-out: Tet(X) Inhibitor MIC, alone, without L-arabinose induction) was 64 µg/mL; in assay [3] (Acinetobacter, read-out: Tet(X) Inhibitor MIC, alone, Acinetobacter spp. NT3-1), 8 µg/mL; in assay [4] (Salmonella enterica, read-out: Tet(X) Inhibitor MIC), > 128 µg/mL; in assay [5] (Acinetobacter baumannii, read-out: Tet(X) Inhibitor MIC), 128 µg/mL; in assay [6] (Escherichia coli, read-out: Tet(X) Inhibitor MIC, alone, E. coli T-24a), 256 µg/mL; in assay [7] (Proteus penneri, read-out: Tet(X) Inhibitor MIC), > 128 µg/mL. In addition, the “Tet(X) inhibitor MIC” value is 64 µg/mL in assay [2] (setting [8]) and 16 to 64 µg/mL in assay [2] (induced with 0.2%w/v L-arabinose, listed as prochlorperazine). The “reduction of the tigecycline MIC” value in assay [2] (at high concentrations of inhibitor, 0.2%w/v L-arabinose) is given as 2–4 fold. The “Combination (antibiotic/inhibitor) MIC: inhibitor” value in assay [2] (0.2%w/v L-arabinose) amounted to 16 µg/mL; in assay [2] (without L-arabinose) it was 32 µg/mL. Also, the “Combination (antibiotic/inhibitor) MIC: antibiotic” value in assay [2] (0.2%w/v L-arabinose) was 2 µg/mL; in assay [2] (without L-arabinose), 0.13 µg/mL. The FICI is recorded as 0.8 in assay [2] (0.2%w/v L-arabinose); 0.5-1 in assay [2] (0.2%w/v L-arabinose, listed as prochlorperazine); 1 in assay [2] (without L-arabinose); 2 in assay [3] (with tigecycline); 1 in assay [4] (with tigecycline); 0.6 in assay [5] (with tigecycline). In addition, the FICI in assay [6] (with tigecycline) amounted to 0.6; in assay [7] (with tigecycline) it was 2. The Outcome result in assay [2] (0.2%w/v L-arabinose) is “Indifferent (indifferent (0.5–4.0))”; in assay [2] (without L-arabinose), “indifferent (indifferent (0.5-4.0))”; in assay [3] (with tigecycline), “indifferent (indifferent (0.5-4.0))”; in assay [4] (with tigecycline), “indifferent (indifferent (0.5-4.0))”; in assay [5] (with tigecycline) it was “indifferent (indifferent (0.5-4.0))”; in assay [6] (with tigecycline) it was “indifferent (indifferent (0.5-4.0))”. Further, in assay [7] (with tigecycline), the Outcome entry is listed as “indifferent (indifferent (0.5-4.0))”. Further, the “Combination (Antibiotic/Inhibitor) MICs: inhibitor” value in assay [3] (setting [9]) came out at 8 µg/mL; in assay [4] (setting [9]), 64 µg/mL; in assay [5] (setting [9]), 64 µg/mL; in assay [6] (setting [9]), 32 µg/mL; in assay [7] (setting [9]), 128 µg/mL. The “Combination (Antibiotic/Inhibitor) MICs: antibiotic” value amounted to 4 µg/mL in assay [3] (setting [10]); 16 µg/mL in assay [4] (setting [10]); 1 µg/mL in assay [5] (setting [10]); 8 µg/mL in assay [6] (setting [10]); 4 µg/mL in assay [7] (setting [10]).

As for `CN(C)c1cc(NC(=O)CNC(C)(C)C)c(O)c2c1C[C@H]1C[C@H]3[C@H](N(C)C)C(O)=C(C(N)=O)C(=O)[C@@]3(O)C(O)=C1C2=O` [Tigecycline], the IC50 in assay [1] (FP assay) was 18.6 ± 4.9 nM; in assay [1] (Tet(X4) (Polarization)) it was 22 nM and 19 nM. The MIC came to 0.25 µg/mL in assay [2] (read-out: Tigecycline MIC, L-arabinose 0 %w/v); 0.25 µg/mL in assay [2] (read-out: Tigecycline MIC, L-arabinose 0.0002 %w/v); 0.5 µg/mL in assay [2] (read-out: Tigecycline MIC, L-arabinose 0.002 %w/v); 2 µg/mL in assay [2] (read-out: Tigecycline MIC, L-arabinose 0.02 %w/v); 8 µg/mL in assay [2] (read-out: Tigecycline MIC, L-arabinose 0.2 %w/v); 8 µg/mL in assay [2] (read-out: Tigecycline MIC, L-arabinose 0.4 %w/v). Besides, the “Antibiotic MIC” value in assay [2] (setting [8]) is 4 µg/mL; in assay [2] (without L-arabinose induction) it was 0.25 µg/mL; in assay [3] (Acinetobacter spp. NT3-1), 4 µg/mL; in assay [4], 32 µg/mL; in assay [5] it was 8 µg/mL; in assay [6] (E. coli T-24a), 16 µg/mL. Further, the “Antibiotic MIC” value in assay [7] was determined as 8 µg/mL.
